Reference: PMC10218704, “A Novel Blood–Brain Barrier-Penetrating and Vascular-Targeting Chimeric Peptide Inhibits Glioma Angiogenesis” (International Journal of Molecular Sciences, 2023)
Ends that are not written are not given here.

How the values were obtained:
VEGFR-2 = type: binding, human; conditions: peptide 256 and 1000 nmol/L; VEGF-A165 0.5-8 nmol/L; CM5 chip; HBS-EP
Method: To determine the effect of TAT-AT7 in competition with VEGF-A165 binding to VEGFR-2 or NRP-1, the SPR assay was conducted. The whole operation was conducted on a Biacore S200 instrument. The recombinant VEGFR-2 or NRP-1 proteins were firstly immobilized on a CM5 chip by an amine-coupling reaction. VEGF-A165 ligands with gradient concentrations in the absence or presence of different peptides were then flowed over the CM5 chip. The binding of VEGF-A165 ligands to the immobilized recombinant VEGFR-2 or NRP-1 proteins led to an increase of the refractive index on the surface of the chip, which could be converted into the fluctuation of electrical signals in the response (RU). As the concentration of VEGF-A165 was higher, the response value was also higher. However, with the addition of different peptides, the response value decreased to different degrees (Figure 3A and Figure 4A).
(TAT), ATWLPPR (AT7), and […] (TAT-AT7) were synthesized from China Peptides Co., Ltd. (Shanghai, China). The Hoechst 33,258 staining kit, Annexin V-FITC/PI apoptosis detection kit, and BCA protein assay kit were obtained from Beyotime Biotechnology (Nantong, China). The total protein extraction kit was from BestBio (Shanghai, China). The CM5 sensor chip was obtained from GE Healthcare Life Sciences (Uppsala, Sweden). Purified recombinant human VEGFR-2 and NRP-1 receptor proteins were purchased from R&D Systems (Minneapolis, MN, USA). Recombinant human endothelial growth factor-A165 (VEGF-A165) was obtained from PeproTech (Rocky Hill, NJ, USA). Anti-ERK1/2, anti-p-ERK1/2, anti-p-VEGFR-2, anti-AKT, anti-p-AKT, anti-p-SRC, anti-p-FAK, anti-p38 MAPK, anti-p-p38 MAPK, anti-p-PLC-γ, and anti-GAPDH antibodies were purchased from Cell Signaling Technology (Danvers, MA, USA). Anti-VEGFR-2, anti-FAK, and anti-SRC were purchased from Proteintech Group, Inc (Wuhan, China). F-12K medium, heparin, and endothelial cell growth supplement (ECGS) were from Macgene (Beijing, China). DMEM medium and fetal bovine serum (FBS) were obtained from Gibco®, Life Technologies (Carlsbad, CA, USA). […]

ERK1/2 = experiment: Western blot, phosphorylation of ERK1/2; type: cell-based, human; conditions: 320 μmol/L, 90 min, VEGF-A165 30 ng/mL, HUVECs, vs control, AT7, TAT, n = 3
Method: (§1) For Western blotting analysis, HUVECs were seeded into 6-well culture plates at 3 × 10^5 cells/well and incubated overnight. […] Two control groups (F-12K medium in the absence or presence of VEGF-A165) were set. The cells were washed with cold PBS and lysed with lysis buffer (protease and phosphatase inhibitors) on the ice for 30 min, and then centrifuged at 4 °C for 15 min at 14,000 r/min. The supernatant was collected, and its total protein concentration was determined by the BCA protein assay kit. Equal amounts of proteins were separated by 10% SDS-PAGE gels and transferred to polyvinylidene difluoride (PVDF) membranes. After blocking with 5% non-fat milk for 1 h, the membranes were incubated with specific antibodies at 4 °C overnight. Then, the membranes were washed with TBST (Tris-Buffered Saline with 0.1% Tween 20) and incubated with horseradish peroxidase (HRP)-conjugated secondary antibody for 1 h at room temperature. The proteins on the membranes were visualized with enhanced chemiluminescence agents.

FAK = experiment: Western blot, phosphorylation of FAK; type: cell-based, human; conditions: 320 μmol/L, 90 min, VEGF-A165 30 ng/mL, HUVECs, vs control, AT7, TAT, n = 3
Method: as §1

[1] = test system: intracranial U87-mCherry-luc glioma; experiment: Glioma distribution and vascular targeting in vivo (FITC fluorescence, CD31 immunostaining); set-up: species or system nude mice; conditions: 1 h
Excerpt: The orthotopic U87-mCherry-luc glioma-bearing nude mice model was firstly established. Female nude mice were anesthetized by isoflurane and fixed on a ventricle stereotaxic instrument. U87-mCherry-luc cells were collected after trypsin digestion and then injected into the right striatum of the brain of nude mice. On the 4th day after the surgery, the bioluminescence of the glioma tissue was detected by the IVIS kinetic imaging system (Lumina II; Caliper, MA, USA). The mice were randomly divided into four groups according to the bioluminescence intensity (n = 3). FITC-AT7, FITC-TAT, and FITC-TAT-AT7 (30 mg/Kg) were injected into mice via the tail vein on day 8. The control group was only injected with normal saline. After 1 h, the mice were sacrificed, and the brains were collected and fixed with 4% paraformaldehyde for 24 h. Then, the fixed brains were dehydrated by 15% and 30% sucrose, successively, frozen with O.C.T. embedding reagent, and then cut into frozen brain tissue slices. Then, sections of slices were incubated with rabbit anti-murine CD31 antibody, followed by treatment with Cy5.5-labeled goat anti-rabbit IgG secondary antibody. The slices were further stained with DAPI for 5 min and observed using a confocal microscope.

[2] = test system: U87-mCherry-luc glioma tissue; experiment: TUNEL staining of glioma tissue; type: in vivo, nude mice; conditions: 20 mg/kg/day i.v., 11 days; tissue at day 15; n = 3
Method: The orthotopic U87-mCherry-luc glioma-bearing nude mice were randomly assigned to 6 groups (n = 5) according to the bioluminescence intensity of glioma measured on day 4. […] The bioluminescence intensity was measured on days 4, 7, 11, and 14, respectively. Nude mice were weighed daily. On day 15, the mice were sacrificed, and the glioma-bearing brains were harvested. The brain tissues were fixed with 4.0% paraformaldehyde, embedded in paraffin, and cut into slices. The TUNEL staining and CD31 immunohistochemical staining were conducted according to standard histological procedures.

[3] = FITC-labeled peptide 30 mg/kg, tail vein, n = 3

CC(C)C[C@H](NC(=O)[C@H](Cc1c[nH]c2ccccc12)NC(=O)[C@@H](NC(=O)[C@H](C)NC(=O)[C@H](CS)NC(=O)[C@H](CCCNC(=N)N)NC(=O)[C@H](CCCNC(=N)N)NC(=O)[C@H](CCCNC(=N)N)NC(=O)[C@H](CCC(N)=O)NC(=O)[C@H](CCCNC(=N)N)NC(=O)[C@H](CCCNC(=N)N)NC(=O)[C@H](CCCCN)NC(=O)[C@H](CCCCN)NC(=O)[C@@H](N)CCCNC(=N)N)[C@@H](C)O)C(=O)N1CCC[C@H]1C(=O)N1CCC[C@H]1C(=O)N[C@@H](CCCNC(=N)N)C(=O)O [TAT-AT7]
effect on VEGF-A165 and VEGFR-2 binding (RU) (VEGFR-2): significantly reduced the RU value | phosphorylation level of ERK1/2 (ERK1/2): significantly inhibited the phosphorylation level | phosphorylation level of FAK (FAK): significantly inhibited the phosphorylation level | co-localization with glioma blood vessels (CD31) [1, 3]: obviously co-localized with glioma blood vessels | green (FITC) fluorescence intensity in glioma tissue [1, 3]: significantly higher than that in the AT7 and TAT groups | accumulation and distribution in the glioma region ([1]; FITC-labeled peptide, intravenous, discussion): higher accumulation and deeper distribution in the glioma region after intravenous injection compared to TAT and TAT+AT7 | number of apoptotic cells (TUNEL) [2]: significantly higher than that in the saline, AT7, TAT, and TAT+AT7 groups

ATWLPPR [AT7, ATWLPPR]
effect on VEGF-A165 and VEGFR-2 binding (RU) (VEGFR-2): less inhibitory effects on VEGF-A165 and VEGFR-2 binding than TAT-AT7
